System: yeast genes (expressed mRNA)
Assay: DNA chip measurement of expressed mRNA of yeast genes after culture with a toxic chemical substance
Type: cell-based, Saccharomyces cerevisiae S288C
Protocol: Yeast (Saccharomyces cerevisiae S288C (a SUC2mal mel gap2 CUP1)) were cultured at 25° C. on YPD medium (yeast extract 1%, polypeptone 2%, glucose 2%). One of toxic chemical substances was added to the cell at logarithmic growth phase, and the cell was further cultured for two hours. Cell was cultured without any chemical substance in the same condition, and was used as a control. Concentrations of the chemical substances were defined to inhibit the growth of the yeast but not lead to death.
After the completion of cultivation, the culture was centrifuged to collect the cells. To the cells, sodium acetate buffer (50 mM sodium acetate, 10 mM EDTA, 1% SDS) was added, and the mixture was shaken at 65° C. for five minutes, followed by returning to room temperature, and obtaining the supernatant, which procedure was repeated two times. To the supernatant, ½ amount of a solution of phenol/chloroform (1:1) was added, and the mixture was centrifuged to give a supernatant, an equal amount of chloroform was added, and the mixture was centrifuged to give a supernatant. To the supernatant, an equal amount of isopropanol containing 0.3 M sodium acetate was added, and the mixture was allowed to stand at room temperature for 30 minutes, after which the mixture was centrifuged to give sediment of the whole RNAs. Seventy % ethanol was added to the sediment, and the mixture was again centrifuged to give sediment, which was then dried and dissolved in water. mRNA was isolated from the whole RNAs as followings. In view of the fact that a poly A chain is attached to the 3′ terminus of mRNA, a polynucleotide having a poly T structure which was immobilized on the surface of latex beads was used to trap the mRNA, and then the mRNA was washed and eluted with spine column (Oligotex-dT30<Super>mRNA Purification Kit, Takara). Reverse transcription of the mRNA was conducted with a reverse transcriptase (Super Script II Reverse Transcriptase; catalogue No. 18064-014, GibcoBRL) using fluorescence-labeled nucleotides to give cDNAs that were introduced with Cy3-dUTP or Cy5-dUTP during the reverse transcription.
The labeled cDNAs were dissolved in TE buffer (10 mM Tris-HCl/1 mM EDTA, pH 8.0), and the solution was dropped on the DNA chip containing the whole genes of yeast (DNA Chip Research Inc. Japan) so that the cDNAs were hybridized on the DNA chip at 65° C. for over 12 hours. The fluoresces intensity of the DNA chip was read with a scanner, and the ratio relative to the fluorescence intensity resulting from the absence of chemical substance was estimated as the following, which is shown in Tables 1 to 9.
In the Tables, “Intensity” indicated in the rightmost column is a value of the level of expressed mRNA of each gene in control cells as divided by the average level of the expressions of the whole genes. A gene of which mRNA level is lower in control, and is higher in cases of addition of chemical substance, is especially useful in the detection of toxic substances.
Here, when a ratio of an amount of mRNA expressed in the presence of the chemical substance to an amount of mRNA expressed in the absence of the chemical substance is two or more, then it is considered significant.

## S=C([S-])NCCNC(=S)[S-].[Zn+2] [(11), Zinc N,N′-ethylenebis(dithiocarbamate)]
Yeast gene YGL037C, cultured two hours with substance
  The level of expressed mRNA in the presence of chemical substance/The level of expressed mRNA in the absence of chemical substance: 3.9
Yeast gene YGL047W, cultured two hours with substance
  The level of expressed mRNA in the presence of chemical substance/The level of expressed mRNA in the absence of chemical substance: 1.9
Yeast gene YGL053W, cultured two hours with substance
  The level of expressed mRNA in the presence of chemical substance/The level of expressed mRNA in the absence of chemical substance: 1.3
Yeast gene YGL121C, cultured two hours with substance
  The level of expressed mRNA in the presence of chemical substance/The level of expressed mRNA in the absence of chemical substance: 6.1
Yeast gene YGL136C, cultured two hours with substance
  The level of expressed mRNA in the presence of chemical substance/The level of expressed mRNA in the absence of chemical substance: 1.4
Yeast gene YGR101W, cultured two hours with substance
  The level of expressed mRNA in the presence of chemical substance/The level of expressed mRNA in the absence of chemical substance: 2.0
Yeast gene YGR110W, cultured two hours with substance
  The level of expressed mRNA in the presence of chemical substance/The level of expressed mRNA in the absence of chemical substance: 0.5
Yeast gene YGR130C, cultured two hours with substance
  The level of expressed mRNA in the presence of chemical substance/The level of expressed mRNA in the absence of chemical substance: 0.8
Yeast gene YGR146C, cultured two hours with substance
  The level of expressed mRNA in the presence of chemical substance/The level of expressed mRNA in the absence of chemical substance: 0.9
Yeast gene YGR154C, cultured two hours with substance
  The level of expressed mRNA in the presence of chemical substance/The level of expressed mRNA in the absence of chemical substance: 1.5
Yeast gene YGR221C, cultured two hours with substance
  The level of expressed mRNA in the presence of chemical substance/The level of expressed mRNA in the absence of chemical substance: 0.5
Yeast gene YHR029C, cultured two hours with substance
  The level of expressed mRNA in the presence of chemical substance/The level of expressed mRNA in the absence of chemical substance: 3.8
Yeast gene YHR138C, cultured two hours with substance
  The level of expressed mRNA in the presence of chemical substance/The level of expressed mRNA in the absence of chemical substance: 1.6
Yeast gene YHR199C, cultured two hours with substance
  The level of expressed mRNA in the presence of chemical substance/The level of expressed mRNA in the absence of chemical substance: 1.9
Yeast gene YHR209W, cultured two hours with substance
  The level of expressed mRNA in the presence of chemical substance/The level of expressed mRNA in the absence of chemical substance: 3.3
Yeast gene YIL023C, cultured two hours with substance
  The level of expressed mRNA in the presence of chemical substance/The level of expressed mRNA in the absence of chemical substance: 1.1
Yeast gene YIL024C, cultured two hours with substance
  The level of expressed mRNA in the presence of chemical substance/The level of expressed mRNA in the absence of chemical substance: 0.6
Yeast gene YIL041W, cultured two hours with substance
  The level of expressed mRNA in the presence of chemical substance/The level of expressed mRNA in the absence of chemical substance: 1.4
Yeast gene YIL087C, cultured two hours with substance
  The level of expressed mRNA in the presence of chemical substance/The level of expressed mRNA in the absence of chemical substance: 2.8
Yeast gene YIL117C, cultured two hours with substance
  The level of expressed mRNA in the presence of chemical substance/The level of expressed mRNA in the absence of chemical substance: 1.8
Yeast gene YIL136W, mitochondria-located protein gene
  The level of expressed mRNA in the presence of chemical substance/The level of expressed mRNA in the absence of chemical substance: 4.8
Yeast gene YIR024C
  The level of expressed mRNA in the presence of chemical substance/The level of expressed mRNA in the absence of chemical substance: 6.3
Yeast gene YJL020C, cultured two hours with substance
  The level of expressed mRNA in the presence of chemical substance/The level of expressed mRNA in the absence of chemical substance: 0.6
Yeast gene YJL057C, cultured two hours with substance
  The level of expressed mRNA in the presence of chemical substance/The level of expressed mRNA in the absence of chemical substance: 2.0
Yeast gene YJL066C, cultured two hours with substance
  The level of expressed mRNA in the presence of chemical substance/The level of expressed mRNA in the absence of chemical substance: 0.8
Yeast gene YJL082W, cultured two hours with substance
  The level of expressed mRNA in the presence of chemical substance/The level of expressed mRNA in the absence of chemical substance: 1.0
Yeast gene YJL108C, cultured two hours with substance
  The level of expressed mRNA in the presence of chemical substance/The level of expressed mRNA in the absence of chemical substance: 1.0
Yeast gene YJL144W, cultured two hours with substance
  The level of expressed mRNA in the presence of chemical substance/The level of expressed mRNA in the absence of chemical substance: 3.0
Yeast gene YJL149W, cultured two hours with substance
  The level of expressed mRNA in the presence of chemical substance/The level of expressed mRNA in the absence of chemical substance: 1.5
Yeast gene YJL151C, cultured two hours with substance
  The level of expressed mRNA in the presence of chemical substance/The level of expressed mRNA in the absence of chemical substance: 1.0
Yeast gene YJL152W, cultured two hours with substance
  The level of expressed mRNA in the presence of chemical substance/The level of expressed mRNA in the absence of chemical substance: 1.0
Yeast gene YJL161W, cultured two hours with substance
  The level of expressed mRNA in the presence of chemical substance/The level of expressed mRNA in the absence of chemical substance: 3.7
Yeast gene YJL171C, cultured two hours with substance
  The level of expressed mRNA in the presence of chemical substance/The level of expressed mRNA in the absence of chemical substance: 2.2
Yeast gene YJL186W, cultured two hours with substance
  The level of expressed mRNA in the presence of chemical substance/The level of expressed mRNA in the absence of chemical substance: 0.6
Yeast gene YJR008W, cultured two hours with substance
  The level of expressed mRNA in the presence of chemical substance/The level of expressed mRNA in the absence of chemical substance: 1.4
Yeast gene YJR054W, cultured two hours with substance
  The level of expressed mRNA in the presence of chemical substance/The level of expressed mRNA in the absence of chemical substance: 0.7
Yeast gene YJR085C, cultured two hours with substance
  The level of expressed mRNA in the presence of chemical substance/The level of expressed mRNA in the absence of chemical substance: 2.9
Yeast gene YKL034W, cultured two hours with substance
  The level of expressed mRNA in the presence of chemical substance/The level of expressed mRNA in the absence of chemical substance: 1.2
Yeast gene YKL070W
  The level of expressed mRNA in the presence of chemical substance/The level of expressed mRNA in the absence of chemical substance: 10.4
Yeast gene YKL071W, cultured two hours with substance
  The level of expressed mRNA in the presence of chemical substance/The level of expressed mRNA in the absence of chemical substance: 40.3
